Reference: ChEMBL document CHEMBL5604062, “ASAP - ZIKV NS2B-NS3 protease fluorescence dose response” (2024)

biological target: Nonstructural protein 3 (Zika virus, UniProt A0A024AXB9); test: Functional biochemical assay to identify treatments for viral infectious disease that targets Zika NS2B-NS3 protease. Utilizing a direct enzyme activity measurement method, reading the fluorescence intensity is used to characterize the relative potency of inhibitors as IC50.; design: species or system PRVABC59
Sequence (A0A024AXB9 whole entry): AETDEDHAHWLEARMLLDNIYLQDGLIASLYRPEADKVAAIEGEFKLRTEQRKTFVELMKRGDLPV

Point of comparison: CCCC[C@@H](NC(=O)OC(C)(C)C)C(=O)N[C@@H](C(=O)NCc1ccc(CN)cc1)c1ccc(OCc2ccccc2)cc1, IC50 25.6 µM. Against it:
- O=C(C(=O)N1CCOCC1)c1c[nH]c2ccccc12 — higher, > 99.5 µM
- CCCC[C@H](NC(C)=O)C(=O)N[C@H](C(=O)NCc1ccc(C(N)=O)cc1)c1ccc(OCc2ccccc2)cc1 — higher, > 99.5 µM
- NC(=O)c1cccc(NC(=O)[C@@H](NC(=O)c2ccc(Oc3ccc(C(F)(F)F)cc3)cc2)c2ccc(OCc3ccccc3)cc2)c1 — higher, > 99.5 µM
- CNC(=O)c1cc(Cl)ccc1NS(=O)(=O)c1cccc(Oc2ccccc2)c1 — higher, > 99.5 µM
- CN(C)c1ccc(/C=C/C(=O)C(=O)N2CCOCC2)cc1 — 3.2-fold higher, 83.2 µM
- O=S(=O)(Nc1ccc(Oc2ccccc2Cl)cc1)c1c[nH]c2ccc(Cl)cc12 — higher, > 99.5 µM
- O=C(/C=C/c1ccc(N2CCNCC2)cc1)C(=O)N1CCOCC1 — higher, > 99.5 µM
- CCCC[C@H](N)C(=O)N[C@H](C(=O)NCc1ccc(C(N)=O)cc1)c1ccc(OCc2ccccc2)cc1 — 3.2-fold higher, 81 µM
- CCc1ccc(NS(=O)(=O)c2ccc(Oc3ccccc3Cl)cc2)c(C(=O)NC)c1 — higher, > 99.5 µM
- c1ccc2c(CN3CC[C@H](c4c[nH]c5ccccc45)C3)c[nH]c2c1 — higher, > 99.5 µM
- CNC(=O)c1cc(Cl)c(OC)cc1NS(=O)(=O)c1ccc(Oc2ccccc2Cl)cc1 — 2.1-fold higher, 53.4 µM
- CCCC[C@H](N)C(=O)N[C@@H](C(=O)NCc1ccc(C(N)=O)cc1)c1ccc(OCc2ccccc2)cc1 — higher, > 99.5 µM
- CNC(=O)c1cc(C#N)ccc1NS(=O)(=O)c1ccc(Oc2ccccc2Cl)cc1 — higher, > 99.5 µM
- COc1cc(Cc2ccnc(N3CCNCC3)c2)nc(N2CCNCC2)n1 — higher, > 99.5 µM
- COc1cnccc1NC(=O)c1cccn(CC(C)C)c1=O — higher, > 99.5 µM
- Nc1ccc(/C=C/C(=O)C(=O)N2CCN(CCc3ccccc3)CC2)cc1 — higher, > 99.5 µM
- NCc1ccc(C[C@H](NC(=O)c2ccccc2)C(=O)N2CCCCC2)cc1 — higher, > 99.5 µM
- CCn1ccnc(N2CC[C@H](c3cccnc3)C2)c1=O — higher, > 99.5 µM
- CCn1ccnc(N2CC[C@H](c3ccn[nH]3)C2)c1=O — higher, > 99.5 µM
- CCCCCC(=O)N[C@H](C(=O)NCc1cccc(CN)c1)C1CCCCC1 — higher, > 99.5 µM
- NC(=O)c1ccccc1NS(=O)(=O)c1ccc(Oc2ccccc2Cl)cc1 — higher, > 99.5 µM
- CC(C)Nc1nc2ccc(C(=O)Nc3ccc4cn[nH]c4n3)cc2[nH]1 — higher, > 99.5 µM
- CCn1ccnc(N2C[C@@H](O)[C@H](c3c[nH]c4ccccc34)C2)c1=O — higher, > 99.5 µM
- c1cc(CN2CCC(c3c[nH]c4ncccc34)CC2)c2[nH]ccc2c1 — higher, > 99.5 µM
- O=C(O)c1cccc(NC(=O)c2cccc(OCc3c(Cl)cccc3Cl)c2)c1 — higher, > 99.5 µM
- Cc1cc(NS(=O)(=O)c2ccc(Oc3ccccc3Cl)cc2)c(C(=O)NCC(F)(F)F)cc1F — 2.8-fold higher, 72.3 µM
- CCCC[C@H](NC(=O)OC(C)(C)C)C(=O)N[C@H](C(=O)NCc1ccc(C(N)=O)cc1)c1ccc(OCc2ccccc2)cc1 — higher, > 99.5 µM
- COc1cc(C(=O)Nc2cnc3ccccc3c2)nc(N2CCNCC2)n1 — higher, > 99.5 µM
- CCn1ccnc(N2CC[C@@H](C(=O)NC)C2)c1=O — higher, > 99.5 µM
- CC(C)(CO)CN1CC[C@H](c2c[nH]c3ccccc23)C1 — higher, > 99.5 µM
- O=C(c1cc(Cl)ccc1NS(=O)(=O)c1ccc(Oc2ccccc2Cl)cc1)N1CCCC1 — higher, > 99.5 µM
- CCn1c(=O)c(N2CC[C@@H](CO)C2)nc2ccccc21 — higher, > 99.5 µM
- CCn1ccnc(N2CCC(c3c[nH]c4ccccc34)CC2)c1=O — higher, > 99.5 µM
- CC(C)Nc1nc2ccc(C(=O)Nc3nnnn3-c3ccccn3)cc2[nH]1 — higher, > 99.5 µM
- CCn1ccnc(N2CC[C@@H](CC(N)=O)C2)c1=O — higher, > 99.5 µM
- CC(C)(C)OC(=O)N[C@H](C(=O)Nc1cccc(CN)c1)c1ccc(OCc2ccccc2)cc1 — higher, > 99.5 µM
- O=S(=O)(Nc1ccc(Cl)cc1)c1ccc(Oc2ccccc2Cl)cc1 — higher, > 99.5 µM
- CCn1ccnc(N2CC[C@H](c3cccc(C#N)c3)C2)c1=O — higher, > 99.5 µM
- O=C(NCC1CC1)c1cc(Cl)ccc1NS(=O)(=O)c1ccc(Oc2ccccc2Cl)cc1 — 3-fold higher, 76.3 µM
- NCc1ccc(/C=C/C(=O)C(=O)N2CCOCC2)cc1 — 3.1-fold higher, 79.4 µM
- CCn1ccnc(N2CC[C@H](c3ccc(OC)nc3)C2)c1=O — higher, > 99.5 µM
- CCn1ccnc(N2CC[C@H](c3ccc(F)cc3)C2)c1=O — higher, > 99.5 µM
- CCn1ccnc(N2CC[C@H](C3CCOCC3)C2)c1=O — higher, > 99.5 µM
- Fc1ncccc1OCc1cc(Cl)nc(N2CCNCC2)n1 — higher, > 99.5 µM
- COc1ccc2nc(C(F)(F)F)nc(N3CCN(c4ccc(N)nc4)CC3)c2c1 — higher, > 99.5 µM
- CCn1ccnc(N2CC[C@H](c3ccncc3)C2)c1=O — higher, > 99.5 µM
- CC(C)CNC(=O)c1cc(Cl)ccc1NS(=O)(=O)c1ccc(Oc2ccccc2Cl)cc1 — within 1.5-fold, 34.3 µM
- c1ccc2c(CN3CCC[C@H](c4c[nH]c5ccccc45)C3)c[nH]c2c1 — higher, > 99.5 µM
- O[C@@H]1CNC[C@H]1c1c[nH]c2ccccc12 — higher, > 99.5 µM
- CCCC[C@H](NC(C)=O)C(=O)N[C@H](C(=O)Nc1ccc(C(N)=O)cc1)c1ccc(OCc2ccccc2)cc1 — higher, > 99.5 µM
- CC(C)(CO)NC(=O)c1cc(Cl)cc(NC(=O)c2cc(Cl)ccc2O)c1 — higher, > 99.5 µM
- C[C@@H](Cc1c[nH]c2ccccc12)N1CC[C@H](c2c[nH]c3ccccc23)C1 — higher, > 99.5 µM
- CCn1ccnc(N2CC[C@H](C#N)C2)c1=O — higher, > 99.5 µM
- CCn1ccnc(N2CC[C@@H](CO)C2)c1=O — higher, > 99.5 µM
- NCc1cccc(NC(=O)[C@@H](NC(=O)OCc2ccccc2)c2cccc(F)c2F)c1 — higher, > 99.5 µM
- c1ccc2c(CN3CCC(c4c[nH]c5cccnc45)CC3)c[nH]c2c1 — within 1.5-fold, 25.2 µM
- CN(CCS(N)(=O)=O)C(=O)c1cc(Cl)ccc1NS(=O)(=O)c1ccc(Oc2ccccc2Cl)cc1 — higher, > 99.5 µM
- CCn1ccnc(N2CC[C@@H](Cc3ccncc3)C2)c1=O — higher, > 99.5 µM
- CCn1ccnc(N2CC[C@@H](CC#N)C2)c1=O — higher, > 99.5 µM
- CCCC[C@H](NC(C)=O)C(=O)N[C@H](C(=O)NCc1ccc(CN)cc1)c1ccc(OCc2ccccc2)cc1 — 2.4-fold higher, 60.4 µM
- O=C(Cn1ccc2cccnc21)N1CC[C@H](c2c[nH]c3ccccc23)C1 — higher, > 99.5 µM
- CC(C)(C)OC(=O)N[C@H](C(=O)Nc1ccc(CN)cc1)c1ccc(OCc2ccccc2)cc1 — higher, > 99.5 µM
- CN(C)Cc1cccc(C(=O)Nc2cc(Cl)cc(C(=O)NC(C)(C)CO)c2)c1 — higher, > 99.5 µM
- CNC(=O)c1cc(Cl)c(F)cc1NS(=O)(=O)c1ccc(Oc2ccccc2Cl)cc1 — within 1.5-fold, 37.9 µM
- c1ccc2c([C@H]3CCN(C[C@H]4CCOC4)C3)c[nH]c2c1 — higher, > 99.5 µM
- c1ccc2c([C@H]3CCN(CC[C@H]4CCCO4)C3)c[nH]c2c1 — higher, > 99.5 µM
- CCn1ccnc(N2CC[C@H](C(C)(C)C)C2)c1=O — higher, > 99.5 µM
- NCc1cccc(NC(=O)[C@@H](Cc2c[nH]c3ccccc23)NC(=O)OCc2ccccc2)c1 — higher, > 99.5 µM
- c1ccc2c([C@H]3CCN(CCC4CCOCC4)C3)c[nH]c2c1 — higher, > 99.5 µM
- CC(C)Cn1cccc(C(=O)Nc2ccnc3ccccc23)c1=O — higher, > 99.5 µM
- c1ccc2c(CN3CCC(c4c[nH]c5ncccc45)CC3)c[nH]c2c1 — within 1.5-fold, 33.9 µM
- CC[C@H]1CCN(c2nccn(CC)c2=O)C1 — higher, > 99.5 µM
- O=C(O)c1cc(Cl)ccc1NS(=O)(=O)c1ccc(Oc2ccccc2Cl)cc1 — within 1.5-fold, 35.1 µM
- CCn1ccnc(N2CC[C@H](c3ccc(C#N)cc3)C2)c1=O — higher, > 99.5 µM
- O=C(Nc1cccc(N2CCNCC2)c1)c1cccc2ncccc12 — higher, > 99.5 µM
- O=C1NCc2ccccc2C12CCN(Cc1cc3ccc(F)cc3[nH]1)CC2 — higher, > 99.5 µM
